Measurements as given in US20200085979A1, “PRECISION MEDICINE THERANOSTICS AND DIAGNOSTICS A COMBINATION THEREOF” (priority 2018, published 2020).

How the values were obtained:
[1] = system: αvβ3 and αvβ5 integrin; test: comparison of the αvβ3 and αvβ5 integrin antagonist peptidomimetic with an αvβ3 integrin peptide in nude mice, same chelator and radionuclide; type: in vivo; conditions: versus αvβ3 integrin peptide
Source text: Embodiments of the present invention also utilize the therapeutic compounds of the invention in conjunction with a diagnostic. Compounds containing αvβ3/αvβ5 anti-integrin antagonist peptidomimetic, displaying a selective affinity for the HER2+ protein, vitronectin, fibronectin, tenascin, reelin, kindlin, talin or combination thereof for the diagnosis or prognosis of disorders using PET, SPECT and MRI or combinations by administering an effective amount of activity thereof to a subject, particularly for the diagnosis of diseases related to metastasis and angiogenesis such as breast cancer, lung cancer, ovarian cancer, gastric cancer, esophageal cancer, blood borne cancers, musculoskeletal tumors, melanoma, head and neck cancer, human glioma, cervical cancer, vascular restenosis, osteoporosis, rheumatoid arthritis. […] The compounds referred to may be radiotracers for nuclear medicine, such as the Gallium-68 or Fluorine-18, […], Copper-64, or Technetium-99m, covalently bound to a spacer, chelator, directly to the peptidomimetic, to a nanoparticle or to more than one amino acid unit of the peptidomimetic. Other radiotracers are those reported in the publication Radionuclide Peptide Cancer Therapy, edited by M. Chinol and G. Paganelli, Taylor and Francis CRC Press, 2006. […]

[2] = system: HER2+ breast cancer; test: human PET study versus [18F] Fludeoxyglucose PET scan in an HER2+ breast cancer patient; type: in vivo

4-[2-(3,4,5,6-tetrahydropyrimidine-2-ylamino)ethyloxy]benzoyl-2-[N-(3-aminoneopenta-1-carbamyl)]-aminoethylsulfonyl-amino-β-alanine [integrin antagonist peptidomimetic]
affinity for the targeted organs relative to the comparator αvβ3 integrin peptide [1]: three to seven times better | tumors distant from the primary detected [2]: 25 tumors
